In US20170340693A1, “DISLODGEMENT AND RELEASE OF HSC USING ALPHA 9 INTEGRIN ANTAGONIST AND CXCR4 ANTAGONIST” (COMMONWEALTH SCIENTIFIC AND INDUSTRIAL RESEARCH ORGANISATION, priority 2014, published 2017):

Key:
[1] = test system: bone marrow progenitor cells (LSK) and HSC (LSKSLAM); assay: In vivo bone marrow binding assay; settings: 10 mg kg−1 intravenously, versus un-injected mice
Method: R-BC154 (IXb) in PBS (10 mg kg-1) was injected intravenously into C57 mice. After 5 min, bone marrow cells were isolated as previously described in D. N. Haylock et at Stem Cells, 2007, 25, 1062-1069 and J. Grassinger, et al Cytokine, 2012, 58, 218-225. Briefly, one femur, tibia and iliac crest were excised and cleaned of muscle. After removing the epi- and metaphyseal regions, bones were flushed with PBS-2% FBS to obtain whole bone marrow, which were washed with PBS-2% FBS and then immunolabelled for flow cytometry. For analysis of R-BC154 (IXb) binding, the following antibody combinations were chosen to minimise emission spectra overlap. […]
To assess whether R-BC154 (IXb) and this class of N-phenylsulfonyl proline-based peptidomimetics could bind directly to HSC, R-BC154 (IXb) (10 mg kg^−1) was injected intravenously into mice and analysed for R-BC154 (IXb) labelling of phenotypically defined bone marrow progenitor cells (LSK cell; lineage-Sca-1+c-Kit+) and HSC (LSKSLAM cell; LSKCD48-CD150+) using multi-colour flow cytometry. […] Furthermore, in vivo R-BC154 (IXb) binding was also confirmed by fluorescence microscopy on purified populations of progenitor cells (Lineage-Sca-1+c-Kit+).

[2] = test system: cord blood (CB) mononuclear cells (MNC); assay: R-BC154 (IXb) binding to cord blood mononuclear cell populations, flow cytometry; format: cell-based, human; settings: 1 mM Ca2+/Mg2+
Method: (§1) For in vitro labelling experiments, 5×10^6 BM cells from C57 mice, conditional α4^−/−/α9^−/− mice and humanised NODSCIDIL2Rγ^−/− mice and human cord blood MNCs were treated with R-BC154 (IXb) (up to 300 nM) in PBS (0.5% BSA) or TBS (0.5% BSA) containing either 1 mM CaCl2/MgCl2 (activating) or 10 mM EDTA (deactivating) at 40×10^6 cells/ml for 20 mins at 4° C. Cells were washed with cold PBS (2% FBS) and then immunolabelled as described in “Antibody Cocktails” prior to flow cytometric analysis. For in vivo experiments, C57BL/6 mice, α4^−/−/α9^−/− vav-cre mice and humanised NODSCIDIL2Rγ^−/− mice received either intravenous or subcutaneous injections of R-BC154 (IXb) (5-10 mg/kg) at 100 ul/10 gm mouse weight and analysed as described above.
(§2) For the assessment of α9β1 contribution to R-BC154 (IXb) binding, human and murine cells were stained with R-BC154 (100 nM) in the absence of competing antagonist or in the presence of excess amounts of the selective α4β1 antagonist BIO5192 (1 μM) or dual α4β1/α9β1 antagonist BOP (1 μM) in PBS containing 0.5% BSA and 1 mM CaCl2MgCl2 at 0° C. for 30 min. Cells were washed, immunolabelled as described above and analysed by flow cytometry. The contribution of α9β1 binding was calculated by measuring the difference in MFI between R-BC154 (IXb)+BIO5192 and +BOP and expressed as a % of R-BC154 (IXb) alone.

[3] = test system: human BM committed cells, progenitors and HSC of huNSG mice; assay: R-BC154 (IXb) binding to humanized NSG (huNSG) BM; format: cell-based; settings: Ca2+/Mg2+
Method: as §1, §2

[4] = target: α9β1 integrin (Homo sapiens, UniProt P05556+Q13797); assay: In vitro (saturation) binding of R-BC154; parameters: expressed in transfected cells; host or cells: LN18 (ATCC CRL-2610), retrovirally transduced; endogenous α4 silenced with pSM2c-shITGA4; settings: in vitro binding data
α9β1 integrin, sequence (Q13797 30-1035): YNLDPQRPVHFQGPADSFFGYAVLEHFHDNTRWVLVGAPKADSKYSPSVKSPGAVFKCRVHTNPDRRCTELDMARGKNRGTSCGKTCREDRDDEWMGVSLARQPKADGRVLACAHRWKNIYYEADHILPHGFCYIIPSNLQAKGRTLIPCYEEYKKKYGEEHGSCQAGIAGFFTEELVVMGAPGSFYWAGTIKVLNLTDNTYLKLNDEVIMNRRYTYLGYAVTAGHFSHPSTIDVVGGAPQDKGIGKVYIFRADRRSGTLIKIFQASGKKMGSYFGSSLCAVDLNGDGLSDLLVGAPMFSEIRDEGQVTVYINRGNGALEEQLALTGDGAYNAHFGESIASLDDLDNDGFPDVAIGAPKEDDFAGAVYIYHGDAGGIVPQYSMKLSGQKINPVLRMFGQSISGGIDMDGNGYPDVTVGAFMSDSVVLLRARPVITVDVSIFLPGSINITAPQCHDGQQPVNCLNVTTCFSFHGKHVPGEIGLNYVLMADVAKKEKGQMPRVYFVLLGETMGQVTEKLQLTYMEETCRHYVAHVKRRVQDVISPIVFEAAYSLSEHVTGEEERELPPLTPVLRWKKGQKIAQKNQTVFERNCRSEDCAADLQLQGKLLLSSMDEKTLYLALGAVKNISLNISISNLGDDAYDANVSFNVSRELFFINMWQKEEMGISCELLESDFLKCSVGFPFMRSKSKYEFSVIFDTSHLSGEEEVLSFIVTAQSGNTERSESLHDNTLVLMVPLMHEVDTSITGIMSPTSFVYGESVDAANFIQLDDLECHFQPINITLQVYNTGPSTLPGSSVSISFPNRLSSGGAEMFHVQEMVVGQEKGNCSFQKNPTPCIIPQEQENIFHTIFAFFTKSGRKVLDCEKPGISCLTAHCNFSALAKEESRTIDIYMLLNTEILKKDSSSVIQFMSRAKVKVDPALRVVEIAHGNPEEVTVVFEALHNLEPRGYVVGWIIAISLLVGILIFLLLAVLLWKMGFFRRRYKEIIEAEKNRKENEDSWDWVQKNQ
α9β1 integrin, sequence (P05556 21-798): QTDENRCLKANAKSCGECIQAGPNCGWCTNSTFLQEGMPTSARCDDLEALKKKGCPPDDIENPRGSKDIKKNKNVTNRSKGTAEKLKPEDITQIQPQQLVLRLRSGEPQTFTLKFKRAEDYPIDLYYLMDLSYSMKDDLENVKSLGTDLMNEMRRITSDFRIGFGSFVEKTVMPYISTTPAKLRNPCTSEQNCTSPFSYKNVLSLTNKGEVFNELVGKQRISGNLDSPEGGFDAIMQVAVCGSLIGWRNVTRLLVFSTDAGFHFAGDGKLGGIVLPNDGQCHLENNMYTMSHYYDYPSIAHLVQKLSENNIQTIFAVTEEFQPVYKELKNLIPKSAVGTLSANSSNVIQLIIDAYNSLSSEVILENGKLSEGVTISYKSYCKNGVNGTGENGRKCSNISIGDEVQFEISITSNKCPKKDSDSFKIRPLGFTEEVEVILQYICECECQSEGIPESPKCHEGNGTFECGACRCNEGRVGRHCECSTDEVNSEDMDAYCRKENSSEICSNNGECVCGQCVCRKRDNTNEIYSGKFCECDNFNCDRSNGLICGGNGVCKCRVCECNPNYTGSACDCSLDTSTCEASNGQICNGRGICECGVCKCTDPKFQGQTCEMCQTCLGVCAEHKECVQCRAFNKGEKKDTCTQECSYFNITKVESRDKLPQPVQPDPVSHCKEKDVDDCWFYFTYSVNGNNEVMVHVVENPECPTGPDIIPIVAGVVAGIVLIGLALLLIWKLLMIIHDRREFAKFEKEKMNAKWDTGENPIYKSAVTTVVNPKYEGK
Method: (§3) Cultured α4β1, α9β1 and control LN18 cells (0.5×10^6 cells) were treated with 100 μl of compound (R-BC154) at 0, 1, 3, 10, 30 and 100 nM in TBS-2% FBS (containing either no cations, 1 mM CaCl2—MgCl2 or 1 mM MnCl2). The cells were incubated at 37° C. for 60 min, washed once with TBS-2% FBS, dry pelleted and resuspended in the relevant binding buffer for flow cytometric analysis. Mean channel fluorescence was plotted against concentration and fitted to a one-site saturation ligand binding curve using GraphPad Prism 6. The dissociation constant, Kd was determined from the curves.

[5] = target: α4β1 integrin (Homo sapiens, UniProt P05556+P13612); assay: In vitro (saturation) binding of R-BC154; parameters: expressed in transfected cells; host or cells: LN18 (ATCC CRL-2610), retrovirally transduced; settings: in vitro binding data
α4β1 integrin, sequence (P13612 34-1032): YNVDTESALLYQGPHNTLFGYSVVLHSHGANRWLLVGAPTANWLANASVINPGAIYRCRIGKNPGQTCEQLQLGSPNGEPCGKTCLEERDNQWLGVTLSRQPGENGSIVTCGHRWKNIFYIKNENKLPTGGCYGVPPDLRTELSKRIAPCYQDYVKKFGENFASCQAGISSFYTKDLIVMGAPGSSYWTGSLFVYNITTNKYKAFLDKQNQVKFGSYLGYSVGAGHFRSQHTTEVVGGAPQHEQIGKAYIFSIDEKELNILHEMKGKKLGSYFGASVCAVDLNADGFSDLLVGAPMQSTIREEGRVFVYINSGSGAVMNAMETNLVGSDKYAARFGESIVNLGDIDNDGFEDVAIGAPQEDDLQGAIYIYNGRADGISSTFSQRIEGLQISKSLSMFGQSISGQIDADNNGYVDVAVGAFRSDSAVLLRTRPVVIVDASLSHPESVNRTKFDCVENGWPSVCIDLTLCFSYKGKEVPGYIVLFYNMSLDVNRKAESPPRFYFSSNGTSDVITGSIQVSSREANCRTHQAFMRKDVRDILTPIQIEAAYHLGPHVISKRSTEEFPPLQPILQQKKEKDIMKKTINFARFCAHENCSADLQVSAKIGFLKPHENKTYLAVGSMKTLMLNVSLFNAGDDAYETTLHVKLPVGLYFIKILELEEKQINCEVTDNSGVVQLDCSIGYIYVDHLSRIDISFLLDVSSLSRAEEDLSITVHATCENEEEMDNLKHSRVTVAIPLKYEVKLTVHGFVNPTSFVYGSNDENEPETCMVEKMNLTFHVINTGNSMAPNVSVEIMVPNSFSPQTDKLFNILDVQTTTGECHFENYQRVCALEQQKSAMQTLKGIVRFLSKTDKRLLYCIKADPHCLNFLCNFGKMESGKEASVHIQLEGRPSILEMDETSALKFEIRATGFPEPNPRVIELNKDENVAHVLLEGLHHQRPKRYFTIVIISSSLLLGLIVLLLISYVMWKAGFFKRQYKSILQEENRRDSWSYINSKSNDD
α4β1 integrin, sequence (P05556 21-798): as the sequence (P05556 21-798) above
Method: as §3

[6] = test system: HSC and progenitors isolated from human BM; assay: R-BC154 (IXb) binding to human BM cells; format: cell-based; settings: Ca2+/Mg2+
Method: as §2

CCN(CC)c1ccc2c(-c3ccc(S(=O)(=O)NCc4cn(C5C[C@@H](C(=O)N[C@@H](Cc6ccc(OC(=O)N7CCCC7)cc6)C(=O)O)N(S(=O)(=O)c6ccccc6)C5)nn4)cc3S(=O)(=O)[O-])c3ccc(=[N+](CC)CC)cc-3oc2c1 (stereo partly shown) [R-BC154 (IXb)]
labelling of BM progenitor cells and HSC after injection [1]: Increased cell-associated fluorescence
binding to CB HSC (CD34+CD38−) and progenitors (CD34+CD38+) [2]: high
binding to CB lineage committed cells (CD34−CD38+) [2]: modest
binding through α9β1 on huNSG BM committed cells, progenitors and HSC [3]: significant binding through α9β1 only occurred on HSC
affinity for α9β1 integrin [4]: high affinity
affinity for α4β1 integrin [5]: high affinity
binding to HSC and progenitors isolated from human BM [6]: efficiently bound
